Where two headings read alike, the source gives them in different places.
Legend:
[1] = cited from earlier work
[2] = Racemic modafinil:malonic acid co-crystal pharmacokinetic study in dogs (vs micronized pure modafinil); assay type: in vivo
Experimental: As a reference, micronized modafinil with a median particle size of about 2 micrometers was also administered in the study.

[3] = Solid-state stability of modafinil:malonic acid co-crystal at various temperatures and relative humidities; assay type: physicochemical; conditions: for degradation / degradation per day: four week period
Experimental: At 60 degrees C., about 0.14 percent degradation per day was determined based on a simple exponential model. At 80 degrees C., about 8 percent degradation per day was determined.
FIGS. 49 and 50 show the % area impurities as measured via HPLC versus time (weeks) for samples stored at various conditions including: 25 degrees C., 60% RH; 40 degrees C., 75 percent RH; 40 degrees C., ambient RH; 60 degrees C., ambient RH; 80 degrees C., ambient RH; and −20 degrees C.

[4] = Dynamic vapor sorption isotherm; assay type: physicochemical; conditions: up to at least 40 percent RH at 26 degrees C.
[5] = Pharmacokinetic study with dogs: modafinil:malonic acid formulated with lactose vs PROVIGIL tablets; assay type: in vivo
Excerpt: In Table VI, “Cmax” is the maximum blood plasma concentration, “AUC (inf)” is the extrapolated area under the curve, “t1/2” is the amount of time for the blood plasma level to decrease to half of the Cmax level beginning at administration, “Tmax” is the time to maximum blood plasma concentration from administration, “CL” is the clearance rate of modafinil, and “F %” is the percent bioavailability.

[6] = In vitro dissolution in simulated gastric fluid (SGF) and simulated intestinal fluid (SIF); conditions: micronized, blended with lactose, HPMC capsules
Excerpt: Further aqueous solubility can be measured in simulated gastric fluid (SGF) or simulated intestinal fluid (SIF) rather than water.
Both samples were blended with lactose and filled into HPMC capsules.

[7] = Dog pharmacokinetic study of a single intravenous dose of R-(−)-modafinil vs racemic modafinil; assay type: in vivo; conditions: dogs; for AUC(0-inf) / Cmax / Vd / clearance / half-life: dog, plasma, 5 mg/kg IV, Mean
Excerpt: A dog pharmacokinetic study (N=6) of a single intravenous dose of R-(−)-modafinil was completed. The purity of the R-(−)-modafinil in the administered formulation was ca 80 percent. This formulation was compared to a formulation of racemic modafinil, also administered by the intravenous route to the same dogs in a crossover design. Ir. Table VII, “Cmax” is the maximum blood plasma concentration, “AUC (inf)” is the extrapolated area under the curve, “t1/2” is the amount of time for the blood plasma level to decrease to half of the Cmax level beginning at administration, “Vd” is the volume of distribution, and “CL” is the clearance rate of modafinil.

[8] = dogs, 30 mg/kg oral dose, plasma 2 to 9 hours post-dose, cited from earlier work; for Mean AUC (sulfone): sulfone metabolite
[9] = cited from earlier work; remark: listed apart in the source
[10] = second value listed in the cell

Compound | pKa Values ([1]; first value listed in the cell) | pKa Values [1, 10] | further results
O=C(O)c1cc(=O)[nH]c(=O)[nH]1 [Orotic acid] | 5.85 | 8.95 | –
Nc1ncnc2nc[nH]c12 [Adenine] | 3.8 | – | –
NC(=O)c1cccnc1 [Nicotinamide] | 3.3 | – | –
Oc1ncnc2[nH]ncc12 [Allopurinaol] | 10.2 | – | –
OC[C@@H](O)[C@H](O)[C@@H](O)CO [Xylitol] | ~9 | – | –
Cc1ncc(CO)c(CO)c1O [Pyridoxine] | ~9 | – | –
N[C@@H](Cc1c[nH]c2ccccc12)C(=O)O [Tryptophan] | – | 9.39 | –
NC(=O)C[C@H](N)C(=O)O [Asparagine] | 2.02 | 8.5 | –
O=C(O)CCCC(=O)O [Glutaric acid] | 2.7 | 4.5 | –
NC1[C@H](O)OC(CO)[C@@H](O)[C@H]1O (stereo partly drawn) [Glucosamine] | 6.91 | – | –
Urea | ~8 | – | –
CCCCCCCCCCCCCCCC(=O)O [Palmitic acid] | 4.9 | – | –
Imidazole | 6.92 | – | –
Nc1ccncc1 [4-aminopyridine] | 10 | – | –
Cc1cc(N)c2ccccc2c1O [Vitamin K5] | ~9 | – | melting point: 280 to 282 °C (dec.)
CCCCCCCCCCCC(=O)O [Lauric acid] | ~4.5 | – | –
CCOc1ccc(NC(N)=O)cc1 [4-ethoxyphenyl urea] | ~7-9 | – | –
Nc1ccc(C(=O)O)c(O)c1 [Salicylic acid, 4-amino] | 3.25 | 10 | pKa Values ([1]; third value listed in the cell): 3.5

Compound | pKa Values ([1]; first value listed in the cell) | pKa Values [1, 10] | further results
O=C(O)[C@H](O)[C@@H](O)[C@H](O[C@@H]1O[C@H](CO)[C@H](O)[C@H](O)[C@H]1O)[C@H](O)CO [Lactobionic acid] | 3.2 | – | –
CC1(C(=O)O)CCC(C(=O)O)C1(C)C (stereo not drawn) [Camphoric acid] | – | 5.83 | –
N[C@@H](Cc1ccccc1)C(=O)O [Phenylalanine] | ~2 | ~9 | –
Racemic Modafinil:Malonic Acid Co-crystal [Modafinil: malonic acid co-crystal] | – | – | AUC higher than that of the pure modafinil [2]: 40 to 60%; Tmax [2]: 1.7 ± 0.6 h; degradation ([3]; 20 degrees C.): No degradation; degradation ([3]; 40 degrees C.): No degradation; degradation per day ([3]; 60 degrees C., simple exponential model): about 0.14 percent degradation per day; degradation per day ([3]; 80 degrees C.): about 8 percent degradation per day; stability on storage (% area impurities via HPLC) ([3]; stored at or below 40 degrees C. for at least 26 weeks): stable; water adsorption (DVS) [4]: no appreciable water adsorption; CL ([5]; 200 mg modafinil, Mean): 368.33; Tmax ([5]; 200 mg modafinil, Mean): 2 h; AUC (inf) ([5]; 200 mg modafinil, Mean, extrapolated, in ng·h/mL): 50545.00; Cmax ([5]; 200 mg modafinil, Mean, in ng/mL): 11246.67; F % ([5]; 200 mg modafinil, Mean, percent bioavailability): 81.57%; Cmax compared with PROVIGIL tablets ([5]; FIG. 56): increased; release of modafinil into solution vs free form of modafinil ([6]; SGF): more quickly; release of modafinil into solution vs free form of modafinil ([6]; SIF): more quickly
O=C(O)[C@@H](O)[C@H](O)[C@H](O)[C@@H](O)C(=O)O [Galactaric acid] | – | 3.63 | –
Cc1ncc(CO)c(CN)c1O [Pyridoxamine] | ~9 | – | –
NC(=O)C[S@@+]([O-])C(c1ccccc1)c1ccccc1 [R-(−)-modafinil, R-(−)-2-[(Diphenylmethyl)sulfinyl]acetamide] | – | – | AUC(0-inf) [7]: 15.9 µg·h/mL; Cmax [7]: 7.81 µg/mL; Vd [7]: 0.647 L/kg; clearance [7]: 0.34 L/h/kg; half-life [7]: 1.53 h; difference in pharmacokinetics vs racemic modafinil ([7]; intravenous administration): no significant difference; Mean AUC (racemate) [8]: 97.22 ± 12.58 µg·h/mL; Mean AUC (sulfone) [8]: 8.69 ± 1.22 µg·h/mL
CC(C)[C@H](N)C(=O)O [Valine] | ~4.5 | ~9 | –
Acetohydroxamic acid | 8.7 | – | –
Nc1ccc(C(=O)O)cc1 [4-aminobenzoic acid] | 4.7 | – | –
CN(C)CC(=O)O [Dimethylglycine] | 2.5 | – | –
NC(=O)C[S@+]([O-])C(c1ccccc1)c1ccccc1 [Example 40-983, S-(+)-2-[(Diphenylmethyl)sulfinyl]acetamide] | – | – | Mean AUC (racemate) [8]: 50.94 ± 8.77 µg·h/mL; Mean AUC (sulfone) [8]: 83.12 ± 21.66 µg·h/mL
N=C(N)NCCC[C@H](N)C(=O)O [Arginine] | 2.18 | 9.09 | –
NC(=O)C[S+]([O-])C(c1ccccc1)c1ccccc1 (racemic) [Racemic Modafinil, (±)-2-[(Diphenylmethyl)sulfinyl]acetamide] | – | – | half-life ([2]; dog, in vivo): 2.1 ± 0.7 h; Cmax ([2]; dog, in vivo, median particle size 2 micrometers (pure modafinil), 16 micrometers (co-crystal)): 11 ± 5.9 µg/mL; Tmax ([2]; dog, in vivo, read-out: Tmax): 1.3 ± 0.6 h; AUC(0-inf) [7]: 15.1 µg·h/mL; Cmax [7]: 8.68 µg/mL; Vd [7]: 0.589 L/kg; clearance [7]: 0.341 L/h/kg; half-life [7]: 1.05 h; Mean AUC (racemate) [8]: 46.76 ± 6.95 µg·h/mL; Mean AUC (sulfone) [8]: 35.12 ± 6.93 µg·h/mL; solubility in water [9]: practically insoluble
CC[C@H](C)[C@H](N)C(=O)O [Isoleucine] | 2.32 | 9.76 | –
N[C@@H](CS)C(=O)O [Cysteine] | 1.71 | 8.33 | pKa Values ([1]; third value listed in the cell): 10.78
C[C@@H](O)[C@H](N)C(=O)O [Threonine] | 2.15 | 9.12 | –

From US7566805B2, “Modafinil compositions” (priority 2003, dated 2009)
